Measurements from patent US20110124647A1, “INSECTICIDAL DERIVATIVES OF SUBSTITUTED BENZYLAMINES” (priority 2007, published 2011).

Tests used:
[1] = test system: greenhouse red spider mite (Tetranychus urticae); assay: Tetranychus test, OP-resistant (TETRUR), spray treatment; assay type: in vivo; details: 100 g/ha
Method: To produce a suitable preparation of active compound, 1 part by weight of active compound is mixed with the stated amounts of solvents and emulsifier, and the concentrate is diluted with emulsifier-containing water to the desired concentration.
Discs of bean leaves (Phaseolus vulgaris) which are infested by all stages of the greenhouse red spider mite (Tetranychus urticae) are sprayed with a preparation of active compound of the desired concentration.
After the desired period of time, the effect in % is determined. 100% means that all spider mites have been killed; 0% means that none of the spider mites have been killed.

[2] = test system: green peach aphid (Myzus persicae); assay: Myzus test (MYZUPE), spray treatment; assay type: in vivo; details: 20 g/ha
Method: [table] To produce a suitable preparation of active compound, 1 part by weight of active compound is mixed with the stated amounts of solvent and emulsifier, and the concentrate is diluted with emulsifier-containing water to the desired concentration. Disks of Chinese cabbage (Brassica pekinensis) which are infested with all stages of the green peach aphid (Myzus persicae) are sprayed with a preparation of active compound of the desired concentration. After the desired period of time, the effect in % is determined. 100% means that all aphids have been killed; 0% means that none of the aphids have been killed. [table] To produce a suitable preparation of active compound, 1 part by weight of active compound is mixed with the stated amounts of solvent and emulsifier, and the concentrate is diluted with emulsifier-containing water to the desired concentration. Disks of Chinese cabbage (Brassica pekinensis) which are infested with all stages of the green peach aphid (Myzus persicae) are sprayed with a preparation of active compound of the desired concentration. After the desired period of time, the effect in % is determined. 100% means that all aphids have been killed; 0% means that none of the aphids have been killed.

SMILES: COCCNC(=S)N1CCOC1=NC(C)c1ccccc1 (stereo not drawn) [Compound 2]
- 2. TETRUR spray appl. % 6 d [1]: 90%
- 1. MYZUPE spray appl. % 6 d [2]: 100%

SMILES: CCC(N=C1OCCN1C(=S)NCc1ccccc1)c1ccccc1 (stereo not drawn) [compound 68]
- log P (acidic) (Log P; acidic, Phys. Data cells marked (C)): 4.68 (C)

SMILES: C[C@H](/N=C1\OCCN1C(=S)NCC#N)c1ccccc1 [Compound 94, (2Z)—N-(cyanomethyl)-2-[(1-phenylethyl)imino]-1,3-oxazolidine-3-carbothioamide]
- logP (Log P): 3.07

SMILES: C[C@H](NC(=O)NCCCl)c1ccccc1 [1-(2-chloroethyl)-3-[(1S)-1-phenylethyl]urea]
- logP (Log P): 1.76

SMILES: COCCNC(=S)N1CCO/C1=N\C(C)c1ccccc1Cl (stereo not drawn) [Compound 10, (2Z)-2-{[1-(2-chlorophenyl)ethyl]imino}-N-(2-methoxyethyl)-1,3-oxazolidine-3-carbothioamide]
- logP (Log P): 4.08

SMILES: CC(NC(=O)NCCCl)c1ccccc1Cl (stereo not drawn) [1-(2-chloroethyl)-3-[1-(2-chlorophenyl)ethyl]urea]
- logP (Log P): 2.3

SMILES: CC(N=C1OCCN1C(=S)NCC(F)(F)F)c1ccccc1 (stereo not drawn) [Compound 3]
- 2. TETRUR spray appl. % 6 d [1]: 70%
- 1. MYZUPE spray appl. % 6 d [2]: 100%
